{"source": "patent US20080090859A1", "about": "“Use of Selective Opiate Receptor Modulators In the Treatment Of Neuropathy” (TIOGA PHARMACEUTICALS, INC., priority 2003, published 2008)", "key": {"[1]": {"system": "streptozotocin diabetic rats (tactile allodynia)", "assay": "Tactile allodynia (Von Frey filaments) in streptozotocin diabetic rats", "format": "in vivo, rat", "method": "A) Insulin deficient diabetes was induced in rats by a single injection of streptozotocin (50 mg/kg, intraperitoneally). After having confirmed the development of diabetes by established hyperglycemia, determined in blood samples taken from the rats, asimadoline was administered subcutaneously at doses of 1 mg/kg, 5 mg/kg and 15 mg/kg. For comparison, gabapentin, the most recent treatment for diabetic neuropathy, at 50 mg/kg was included. To determine mechanical threshold (tactile allodynia) for foot withdrawal, a series of Von Frey filaments (minimum 0.25 g; maximum 15 g) was applied in sequence to the plantar surface of the right hindpaw with a pressure that causes the filament to buckle, starting with a filament of a buckling weight of 2 g. Absence of a response after 5 seconds was regarded a negative response, and the next heavier filament was applied. Lifting of the paw was recorded as a positive response, and the next lightest filament were applied. This sequence was continued until four measurements have been made after an initial change in the behavior or until five consecutive negative (given the score of 15 g) or four positive (score of 0.25 g) scores were obtained. The resulting sequence of positive and negative scores was used to determine the 50% response threshold.\nThat the beneficial effects are indeed due to the opioid mechanism of asimadoline can also be seen in Table 1."}, "[2]": {"system": "L5/L6 spinal nerve ligated rats (tactile allodynia)", "assay": "Tactile allodynia (Von Frey filaments) in rats with L5 and L6 spinal nerve ligation", "format": "in vivo, rat", "excerpt": "B) Neuropathic pain was induced by surgical […], i.e. the L5 and L6 spinal nerves on one side were tightly ligated in anesthetized rats. After 15 days of recovery, a series of Von Frey filaments (0.4- 15 g) was applied in sequence to the plantar surface of the ligated hind paw to determine the 50% mechanical threshold for foot withdrawal as described before."}, "[3]": {"system": "capsaicin-treated monkey tail (thermal allodynia)", "assay": "Capsaicin-induced thermal allodynia, tail withdrawal latency in monkey model", "format": "in vivo", "settings": "45 min after administration; for Tail Withdrawal Latency Mean ± SEM: capsaicin, cut-off 20 sec", "method": "C) Because neuropatic pain is characterized by allodynia for various sensory modalities, also thermal allodynia was investigated in a monkey model where allodynia was induced by the topical application of […] of capsaicin to the surface of the tail. Allodynia was assessed by the latency for withdrawal of the tail following immersion of the tail into water with non-noxious temperatures of either 38° C. or 42° C. (cut-off latency of 20 sec)."}}}
{"smiles": "Oc1ccc2c3c1O[C@H]1c4[nH]c5c(c4C[C@@]4(O)[C@@H](C2)N(CC2CC2)CC[C@]314)C[C@@]1(O)[C@H]2Cc3ccc(O)c4c3[C@@]1(CCN2CC1CC1)[C@H]5O4", "note": "[nor-BNI, nor-binaltorphimine, reference compound]", "values": [{"measurement": "50% Response Threshold Mean ± SEM", "setting": "[1]; non-diabetic control rats, nor-BNI 100 μg i.pl.", "value": "13 ± 1.6", "unit": "g"}]}
{"smiles": "NCC1(CC(=O)O)CCCCC1", "note": "[Gabapentin, reference compound]", "values": [{"measurement": "50% Response Threshold Mean ± SEM", "setting": "[2]; 100 mg/kg p.o.", "value": "12.8 ± 1.6", "unit": "g"}, {"measurement": "50% Response Threshold Mean ± SEM", "setting": "[1]; diabetic rats, 50 mg/kg s.c.", "value": "10 ± 1.9", "unit": "g"}]}
{"smiles": "CN(C(=O)C(c1ccccc1)c1ccccc1)[C@H](CN1CC[C@H](O)C1)c1ccccc1.Cl", "note": "[Asimadoline, N-methyl-N-[(1S)-1-phenyl-2-((3S)-3-hydroxypyrrolidin-1-yl)ethyl]-2,2-diphenylacetamide, hydrochloride]", "values": [{"measurement": "Tail Withdrawal Latency Mean ± SEM", "setting": "[3]; 0.01 mg/kg s.c., water 38° C.", "value": "8.0 ± 4.5", "unit": "s"}, {"measurement": "Tail Withdrawal Latency Mean ± SEM", "setting": "[3]; 0.01 mg/kg s.c., water 42° C.", "value": "4.5 ± 2.5", "unit": "s"}, {"measurement": "Tail Withdrawal Latency Mean ± SEM", "setting": "[3]; 0.032 mg/kg s.c., water 38° C.", "value": "19.6 ± 0.4", "unit": "s"}, {"measurement": "Tail Withdrawal Latency Mean ± SEM", "setting": "[3]; 0.032 mg/kg s.c., water 42° C.", "value": "12.8 ± 4.2", "unit": "s"}, {"measurement": "effect on thermal allodynia (in words)", "setting": "[3]; highest dose (0.032 mg/kg s.c.), 38° C. condition", "value": "nearly completely abolished thermal allodynia"}, {"measurement": "50% Response Threshold Mean ± SEM", "setting": "[2]; 1 mg/kg p.o., 2 h after administration", "value": "6.4 ± 0.5", "unit": "g"}, {"measurement": "50% Response Threshold Mean ± SEM", "setting": "[2]; 3 mg/kg p.o., 2 h after administration", "value": "10.1 ± 0.6", "unit": "g"}, {"measurement": "50% Response Threshold Mean ± SEM", "setting": "[2]; 10 mg/kg p.o., 2 h after administration", "value": "12.0 ± 0.4", "unit": "g"}, {"measurement": "effect on tactile allodynia (in words)", "setting": "[2]; highest dose (10 mg/kg p.o.), 2 h after administration", "value": "nearly completely abolished tactile allodynia"}, {"measurement": "50% Response Threshold Mean ± SEM", "setting": "[1]; diabetic rats, 1 mg/kg s.c., 3 h after administration", "value": "2 ± 0.2", "unit": "g"}, {"measurement": "50% Response Threshold Mean ± SEM", "setting": "[1]; diabetic rats, 5 mg/kg s.c., 3 h after administration", "value": "6 ± 2.0", "unit": "g"}, {"measurement": "50% Response Threshold Mean ± SEM", "setting": "[1]; diabetic rats, 15 mg/kg s.c., 3 h after administration", "value": "9 ± 1.7", "unit": "g"}, {"measurement": "effect on tactile allodynia (in words)", "setting": "[1]; diabetic rats, highest dose (15 mg/kg s.c.), 3 h after administration", "value": "nearly completely abolished tactile allodynia"}, {"measurement": "anti-allodynic effect after intraplantar injection of kappa antagonist nor-BNI (in words)", "setting": "[1]; diabetic rats, highest dose of asimadoline + nor-BNI i.pl.", "value": "completely abolished"}, {"measurement": "50% Response Threshold Mean ± SEM", "setting": "[1]; diabetic rats, nor-BNI 100 μg i.pl. + Asimadoline 15 mg/kg s.c.", "value": "3 ± 1.0", "unit": "g"}]}
